Data taken from patent US5430026A, “2'-deoxy-2',2'-difluoro (4-substituted pyrimidine) nucleosides, bicyclic derivatives,pharmaceutical compositions, and synthetic precursors” (Eli Lilly and Company, priority 1993, dated 1995).
Converted amounts (≈) assume the structure as drawn.

What was measured:
HSV-2 = assay: plaque inhibition of HSV-2 in African green monkey kidney cells (BSC-1), Table 2; format: cell-based, Herpes simplex virus, type II; conditions: 72 hours at 37° C., IC50 less than 20 μg/ml is considered active; for IC50: Human alphaherpesvirus 2, BSC-1 cells, read-out: HSV-2 IC50 (concentration giving 50 percent growth inhibition; plaque inhibition)
HSV-1 = assay: plaque inhibition of HSV-1 in African green monkey kidney cells (BSC-1), Table 2; format: cell-based, Herpes simplex virus, type I; conditions: 72 hours at 37° C., IC50 less than 20 μg/ml is considered active; for IC50: Human alphaherpesvirus 1, BSC-1 cells, read-out: HSV-1 IC50 (concentration giving 50 percent growth inhibition; plaque inhibition)
[1] = system: human leukemia cells (CCRF-CEM cell line); assay: growth inhibition (cytotoxicity) of human leukemia cells, Table 1; format: cell-based; conditions: IC50 less than 20 μg/ml is considered active; for IC50: Homo sapiens, read-out: IC50 (concentration giving 50 percent growth inhibition)
Source text: 38, 2886 (1978). The representative compounds of formula I employed in the present invention are cytotoxic as They inhibit the growth of rapidly dividing human leukemia cells (CCRF-CEM cell line). Table 1 below gives the results of testing several compounds representative of formula I. In Table 1, Column 1 gives the representative compound and Column 2 gives the IC50 (concentration giving 50 percent growth inhibition) in μg/ml.

SMILES | IC50 (HSV-2) [µg/mL] | IC50 (HSV-1) [µg/mL] | IC50 [1] [µg/mL] | HSV-2 IC50 (concentration giving 50 percent growth inhibition; plaque inhibition) (HSV-2; BSC-1 cells) [µg/mL] | HSV-1 IC50 (concentration giving 50 percent growth inhibition; plaque inhibition) (HSV-1; BSC-1 cells) [µg/mL] | IC50 (concentration giving 50 percent growth inhibition) [1] [µg/mL]
O=c1nc(NO)ccn1[C@@H]1O[C@H](CO)[C@@H](O)C1(F)F [Example 1, β-1-(2-Oxo-4-hydroxyamino-1,2-dihydropyrimidin-1-yl)-2-deoxy-2,2-difluororibose] | 1.07 (≈ 3.83 µM) | 0.7 (≈ 2.51 µM) | 0.086 (≈ 0.308 µM) | – | – | –
O=c1n([C@@H]2O[C@H](CO)[C@@H](O)C2(F)F)ccc2nnnn12 [Example 2, 6-(2-deoxy-2,2-difluoro-β-D-ribofuranosyl)-1,2,3,4-tetrazolo[1,5-c]pyrimidine-5(6H) -one] | 9.25 (≈ 32 µM) | 8 (≈ 27.7 µM) | 0.5 (≈ 1.73 µM) | – | – | –
O=c1[nH]nc2ccn([C@@H]3O[C@H](CO)[C@@H](O)C3(F)F)c(=O)n12 [Example 4, 6-(2-deoxy-2,2-difluoro-β-D-ribofuranosyl)-1,2,4-triazolo[4,3c]pyrimidine-3,5(2H,6H)-dione] | 4.9 (≈ 16.1 µM) | 6 (≈ 19.7 µM) | 0.2 (≈ 0.657 µM) | – | – | –
NNc1ccn([C@@H]2O[C@H](CO)[C@@H](O)C2(F)F)c(=O)n1 [Example 5, β-1-(2-Oxo-4-hydrazino-1,2-dihydropyrimidin-1-yl)-2-deoxy-2,2-difluororibose] | 4.35 (≈ 15.6 µM) | 3.12 (≈ 11.2 µM) | 0.077 (≈ 0.277 µM) | – | – | –
CCOC(=O)Nc1ccn([C@@H]2O[C@H](CO)[C@@H](O)C2(F)F)c(=O)n1 [Example 6, β-1-(2-Oxo-4-aminocarboethoxy-1,2-dihydropyrimidin-1-yl)-2-deoxy-2,2-difluororibose] | 0.58 (≈ 1.73 µM) | 0.53 (≈ 1.58 µM) | 0.051 (≈ 0.152 µM) | – | – | –
O=c1nc(NCO)ccn1[C@@H]1O[C@H](CO)[C@@H](O)C1(F)F [Example 7, β-1-(2-Oxo-4-hydroxymethylamino-1,2-dihydropyrimidin-1-yl)-2-deoxy-2,2-difluororibose] | – | – | – | 11.1 | 18.0 | 0.3 (≈ 1.02 µM)
CCOC(=O)CNc1ccn([C@@H]2O[C@H](CO)[C@@H](O)C2(F)F)c(=O)n1 [Example 8, β-1-(2-Oxo-4-N-glycineethyl ester-1,2-dihydropyrimidin-1-yl)-2-deoxy-2,2-difluororibose] | – | – | 18.4 (≈ 52.7 µM) | – | – | –
O=C(O)CNc1ccn([C@@H]2O[C@H](CO)[C@@H](O)C2(F)F)c(=O)n1 [Example 9, β-1-(2-Oxo-4-N-glycinyl-1,2-dihydropyrimidin-1yl)-2-deoxy-2,2-difluororibose] | – | – | 0.4 (≈ 1.25 µM) | – | – | –
CNNc1ccn([C@@H]2O[C@H](CO)[C@@H](O)C2(F)F)c(=O)n1 [Example 10, β-1-[2-Oxo-4-(2-methylhydrazino)-1,2-dihydropyrimidin-1-yl]-2-deoxy-2,2-difluororibose] | – | – | 4.1 (≈ 14 µM) | – | – | –
CCOC(=O)C(C)Nc1ccn([C@@H]2O[C@H](CO)[C@@H](O)C2(F)F)c(=O)n1 (stereo partly drawn) [Example 11, β-1-(2-oxo-4-N-alanineethyl ester-1,2-dihydropyrimidin-1-yl)-2-deoxy-2,2-difluororibose] | – | – | – | – | – | 6.3 (≈ 17.3 µM)
